Columns and labels:
PDX-T3 = assay: PDX tumor growth in NSG mice, percentage of RFP positive cells by flow cytometry; format: in vivo; settings: normalized to control shRNA
Method: (§1) For in vivo PDX tumor growth and organoid colony formation experiments, concentrated lentiviral supernatant (to achieve an MOI of 10) was mixed with single cell suspensions of PDX tumor cells in organoid media with 4 μg/mL of Polybrene (Sigma-Aldrich). Organoid media consisted of: Advanced DMEM/F12 (Invitrogen), 10% FBS (Hyclone), 2.5% growth factor-reduced Matrigel (BD), 10 ng/mL mouse EGF (R&D), 100 ng/mL Noggin (R&D), 250 ng/mL RSPO-1 (R&D), 1× B27 (Invitrogen), 1× N2 (Invitrogen), and PSA (Life Technologies). Cells were then spinoculated by centrifuging at 15° C. for 2 hours at 1200×g. Cells were resuspended by pipetting and left overnight in 48-well ultra-low attachment cell culture plates (Corning).
(§2) For organoid colony formation assays, cells were transferred the next day to matrigel. For in vivo PDX assays, approximately 75% of the cells were injected into NSG mice as described in the PDX tumor engraftment section. The remainder 25% of cells were plated on matrigel and grown in organoid media for 72 hours until the cells became RFP positive. At that point media was removed and exchanged for dispase and incubated for 2-3 h until the matrigel dissolved. Dissociated cells were resuspended in flow cytometry buffer and analyzed by flow cytometry to determine the ‘baseline’ RFP percentage for cells that were injected into the mice.
(§3) Single cell suspensions of PDX cells were resuspended in 50% (v/v) mixtures of normal matrigel (BD Biosciences) and flow cytometry buffer in a total volume of 50-100 μL. Using an insulin syringe, cells were injected subcutaneously into the nipple of female NSG mice at the fourth abdominal fat pad. For limiting dilution assays, the specific number of cells injected into the mice were determined by flow cytometry and secondarily by manual counting with a hemocytometer.
(§4) Flow cytometry was performed with a 100 μm nozzle on a Flow Cytometry Aria II (BD Biosciences) with Diva software (BD Biosciences). Data analysis was performed using Flowjo software (Flowjo). For all experiments, side scatter and forward scatter profiles (area and width) were used to eliminate debris and cell doublets. Dead cells were eliminated by excluding 4′,6-diamidino-2-phenylindole (DAPI)-positive cells (Molecular Probes). For PDX tumor cells, they were gated for GFP positivity and then for RFP positivity. RFP percentage is the percentage of GFP positive cells that are also RFP positive. For each sample, we obtain the RFP fraction that is: the RFP % in the tumor divided by the baseline RFP % (see ‘Lentivirus infection’ section). RFP fraction for each sample is then normalized to the RFP fraction for the shRNA control sample which is set at 100% to obtain the ‘Normalized % RFP’.

PDX-T1 [1] = assay: as above; format: in vivo; settings: normalized to control shRNA
Method: as §1, §2, §3, §4

PDX-T2 = assay: as above; format: in vivo; settings: normalized to control shRNA
Method: as §1, §2, §3, §4

PDX-T4 [2] = assay: as above; format: in vivo
Method: as §1, §2, §3, §4

MDA-MB468 cells = assay: Cell viability assay (WST-1), shRNA-transduced cells; format: cell-based, human; settings: 4 days after transduction; normalized to control shRNA
Method: (§5) For in vitro cell line experiments, concentrated lentiviral supernatant (to achieve an MOI of 3) was mixed with cells at the time of seeding. Cells were monitored by visualization of RFP under fluorescence microscopy. All flow cytometry analyses were performed after at least 72 hours of infection.
(§6) For cell lines treated with chemical or infected with lentivirus, WST-1 Cell Proliferation Reagent (Roche) was added at 1:10 (v/v) final dilution to each well per manufacturer's instructions. Cells were subsequently incubated at 37° C. and 5% CO2. Between 1 and 4 hours after addition of reagent, plates were analyzed on a SpectraMax M3 Bioanalyzer (Molecular Devices). Absorbance for each well was measured at 450 nm (signal wavelength) and 650 nm (reference wavelength). Thus, the signal for each experimental sample was Absorbanceexperimental (A450nm-A650nm). To correct for the effect of media, Absorbancebackground (A450nm-A650nm) was obtained by measuring absorbance in a blank well. Thus, the background corrected signal for each sample Acorrected=Absorbanceexperimental−Absorbancebackground. All Acorrected values for the knockdowns were normalized to the Acorrected value for the control sample to obtain a ‘Relative Viability’.

MDA-MB231 cells = assay: as above; format: cell-based, human; settings: 4 days after transduction; normalized to control shRNA
Method: as §5, §6

HS578T cells = assay: as above; format: cell-based, human; settings: 4 days after transduction; normalized to control shRNA
Method: as §5, §6

[3] = test system: human mammary epithelial cells (HMEC); assay: Cell viability assay (WST-1), non-transformed mammary cells; format: cell-based; settings: 4 days after transduction; normalized to control shRNA
Method: as §5, §6

PDX-T1 [4] = assay: RFP positive lung metastases in mice bearing PDX tumor xenografts; format: in vivo, NSG mice
Description: (§7) Xenograft tumors and mice lungs were surgically resected after the mice were euthanized. A 3 to 4 mm section is cut from each tumor and saved in ice cold PBS for imaging. The mice lungs and tumors were imaged on a M205FA Fluorescence Stereo Microscope (Leica) and images were captured with a DFC310FX camera (Leica).
(§8) Percentage of mice with RFP positive lung metastases from mice bearing PDX-T1 (FIG. 1K) or PDX-T4 (FIG. 1L) tumor xenografts are shown. Number of mice with RFP positive lung metastases and total number of mice in each treatment group is shown as a fraction for each condition. PDX tumor cells were transduced with either control shRNA or CDK19 targeting shRNA (shCDK19-1, shCDK19-2) (For FIG. 1K, n=9, experiment performed three times; For […], n=3, experiment performed once). […] In FIG. 1N, bright field images (left column) show gross lung morphology, FITC images (middle column) identify metastatic tumor cells labeled with GFP, and Texas-Red images (right column) identify shRNA-transduced metastatic cells labeled with RFP. We also tested the effect of CDK19 knockdown on PDX-T4, an aggressive PDX obtained from the brain metastasis of a patient with a chemotherapy-resistant inflammatory breast cancer.

PDX-T4 [5] = assay: as above; format: in vivo, NSG mice
Description: as §7, §8

PDX-T1 tumor cells = assay: Organoid colony formation assay; format: cell-based, human; settings: colonies counted 2 weeks after transduction
Method: as §1
For organoid colony formation assays, cells were transferred the next day to matrigel. For in vivo PDX assays, approximately 75% of the cells were injected into NSG mice as described in the PDX tumor engraftment section. […] Dissociated cells were resuspended in flow cytometry buffer and analyzed by flow cytometry to determine the ‘baseline’ RFP percentage for cells that were injected into the mice.
Irradiated L1-Wnt3a feeder cells (generous gift of Dr. Roel Nusse) were mixed with growth factor reduced matrigel (BD Biosciences) and allowed to solidify at 37° C. […] Colonies were counted under fluorescence microscopy. Only RFP positive colonies (which represent transduced cells) were counted. […]

PDX-T1 [6] = assay: Survival of mice engrafted with shRNA-transduced PDX-T1 xenografts; format: in vivo, NSG mice; settings: mice with PDX-T1 tumors; vs control shRNA; sacrificed when tumor exceeded 17 mm
Description: We explored the effect of CDK19 knockdown on the growth of pre-established organoids in vitro and in pre-established PDX tumors in vivo. This aimed to model the treatment of patients' pre-existing tumors. […] In FIGS. 4A and 4B, number of organoid colonies at Day 0 (FIG. 4A) and Day 16 (FIG. 4B) after initiating doxycycline treatment is shown, ****P<0.0001; ns is P>0.05 (mean s.d., n=6, experiment performed twice, P values determined by unpaired t-test). […] In FIGS. 4C and 4D, the growth of pre-established tumors in the doxycycline fed NSG mice and control NSG mice are shown for inducCDK19KD-PDX-T1, ****P<0.0001; ***P<0.001 (mean±s.d., n=5, experiment performed twice, P values determined by unpaired t-test) (FIG. 4C) and inducCDK19KD-PDX-T3, ****P<0.0001; ***P<0.001 (mean±s.d., n=5, experiment performed once, P values determined by unpaired t-test) (FIG. 4D). CDK19 shRNA induced tumors were ultimately 82% smaller in inducCDK19KD-PDX-T1 tumors and 38% smaller in inducCDK19KD-PDX-T3 tumors when compared to control tumors (FIGS. 4C and 4D). […] Shown in FIG. 4E are Kaplan-Meir survival curves for mice engrafted with PDX-T1 xenografts transduced with control shRNA (black line), shCDK19-1 (solid gray line) or shCDK19-2 (dashed gray line). Mice were followed with weekly measurements of tumor diameters. Mice were sacrificed when the longest diameter of their tumor exceeded 17 mm. […]

CDK19 = assay: Quantitative PCR RNA expression analysis of CDK19 knockdown; format: cell-based, human; settings: normalized to control shRNA and beta-actin
Method: Cells were lysed with Trizol (Life Technologies) and RNA was extracted according to the manufacturer's instruction. RNA was then treated with DNAsel to remove contaminating genomic DNA. RNA was reverse transcribed to cDNA using SuperScript III First Strand Synthesis kit (Life Technologies) according to the manufacturer's instructions. TaqMan Gene Expression Master Mix (Applied Biosystems) and the following TaqMan Gene Expression Assays (Applied Biosystems) were used following manufacturer's instructions: ACTB, Hs00357333_g1; CDK19, Hs01039931_m1; CDK8, Hs00993274_m1. Data was collected on a 7900HT Fast Real-Time PCR System (Applied Biosystems) and data analyzed with SDS 2.4 software (Applied Biosystems). Gene expression data in each sample was normalized against the expression of beta-actin.

| Substance | Percentage of RFP positive cells in tumors (PDX-T3) | Percentage of RFP positive cells in tumors (PDX-T1 [1]) | Percentage of RFP positive cells in tumors (PDX-T2) | Growth of the PDX (PDX-T4 [2]) | Relative viability of MDA-MB468 cells (MDA-MB468 cells) | Relative viability of MDA-MB231 cells (MDA-MB231 cells) | Relative viability of HS578T cells (HS578T cells) | Relative viability of HMEC cells [3] | RFP positive lung metastases (PDX-T1 [4]) | RFP positive lung metastases (PDX-T4 [5]) | Formation of organoid colonies (PDX-T1 tumor cells) | Overall survival (PDX-T1 [6]) | Expression of CDK19 by RT-qPCR (CDK19; MDA-MB231) | Expression of CDK19 by RT-qPCR (CDK19; MDA-MB468) | Expression of CDK19 by RT-qPCR (CDK19; PDX-T1) |
| --- | --- | --- | --- | --- | --- | --- | --- | --- | --- | --- | --- | --- | --- | --- | --- |
| shCDK19-1: CDK19 targeting shRNA, sense strand 5′-GCGAGAATTGAAGTACCTTAA-3′ (SEQ ID NO: 1), lentiviral vector (sense GCGAGAATTGAAGTACCTTAA; listed as Homo sapiens) | significant reduction in the percentage of RFP positive cells | significant reduction in the percentage of RFP positive cells | significant reduction in the percentage of RFP positive cells | inhibited both the growth of the PDX | significantly decreased the viability | significantly decreased the viability | significantly decreased the viability | neither of the two CDK19 knockdowns affected the viability | eliminated the detection of any lung metastases | prevented transduced (RFP positive) TNBC cells from metastasizing to the lungs | inhibited the formation of organoid colonies | significantly longer | effectively silences CDK19 | effectively silences CDK19 | effectively silences CDK19 |
| shCDK19-2: CDK19 targeting shRNA, sense strand 5′-ACCAGCAAATATCCTAGTAAT-3′ (SEQ ID NO: 2), lentiviral vector (sense ACCAGCAAATATCCTAGTAAT; listed as Homo sapiens) | significant reduction in the percentage of RFP positive cells | significant reduction in the percentage of RFP positive cells | significant reduction in the percentage of RFP positive cells | inhibited both the growth of the PDX | significantly decreased the viability | significantly decreased the viability | significantly decreased the viability | neither of the two CDK19 knockdowns affected the viability | eliminated the detection of any lung metastases | prevented transduced (RFP positive) TNBC cells from metastasizing to the lungs | inhibited the formation of organoid colonies | significantly longer | effectively silences CDK19 | effectively silences CDK19 | effectively silences CDK19 |

— patent US11471477B2, “Methods for treating triple-negative breast cancer” (Chan Zuckerberg Biohub, Inc., priority 2017, dated 2022)
